Laboratory results from US12606544B2, “JAK1 selective kinase inhibitor” (DIZAL (JIANGSU) PHARMACEUTICAL CO., LTD., priority 2019, dated 2026).

What was measured:
JAK3 = biological target: T1, JAK3 (Homo sapiens, UniProt P52333); experiment: Lance Ultra Kinase Assay, recombinant JAK3; format: biochemical; details: 5 mM ATP
T1 construct: purchased Carna Biosciences
T1 sequence (P52333 1-1124): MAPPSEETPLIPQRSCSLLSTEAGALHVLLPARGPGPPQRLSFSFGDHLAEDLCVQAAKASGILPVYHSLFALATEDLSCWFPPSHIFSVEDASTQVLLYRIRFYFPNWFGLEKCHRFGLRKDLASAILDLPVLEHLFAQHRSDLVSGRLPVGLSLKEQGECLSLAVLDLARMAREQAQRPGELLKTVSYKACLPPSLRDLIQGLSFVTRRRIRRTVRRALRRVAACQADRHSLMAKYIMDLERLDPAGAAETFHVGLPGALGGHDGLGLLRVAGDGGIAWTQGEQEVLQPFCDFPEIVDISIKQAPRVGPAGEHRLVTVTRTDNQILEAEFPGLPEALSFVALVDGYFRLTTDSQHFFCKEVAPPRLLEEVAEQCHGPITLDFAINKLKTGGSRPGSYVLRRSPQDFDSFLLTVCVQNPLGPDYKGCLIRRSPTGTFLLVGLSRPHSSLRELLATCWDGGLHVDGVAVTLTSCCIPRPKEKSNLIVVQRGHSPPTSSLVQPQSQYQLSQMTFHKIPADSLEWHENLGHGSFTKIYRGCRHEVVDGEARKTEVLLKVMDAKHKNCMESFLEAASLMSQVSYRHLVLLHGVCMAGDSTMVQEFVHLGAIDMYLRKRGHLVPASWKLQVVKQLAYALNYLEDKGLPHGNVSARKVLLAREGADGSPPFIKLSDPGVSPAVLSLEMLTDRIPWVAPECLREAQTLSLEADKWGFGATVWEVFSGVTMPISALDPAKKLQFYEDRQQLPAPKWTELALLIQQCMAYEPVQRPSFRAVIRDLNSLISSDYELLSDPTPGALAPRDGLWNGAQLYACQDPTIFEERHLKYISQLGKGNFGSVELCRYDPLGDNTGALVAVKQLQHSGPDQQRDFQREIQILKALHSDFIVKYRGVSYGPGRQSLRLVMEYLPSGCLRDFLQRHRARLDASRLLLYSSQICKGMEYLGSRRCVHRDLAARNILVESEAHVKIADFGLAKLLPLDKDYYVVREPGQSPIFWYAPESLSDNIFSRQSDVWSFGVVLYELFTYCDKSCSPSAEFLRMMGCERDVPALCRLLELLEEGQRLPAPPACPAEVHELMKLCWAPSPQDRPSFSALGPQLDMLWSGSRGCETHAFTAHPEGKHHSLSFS
Outline: (§1)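 Each recombinant kinase preincubated with or without compound 15 min at room temperature, then reaction started with 5 mM ATP and substrate peptide for 60 min. Stopped with EDTA-containing detection mix; TR-FRET read at ex 320 nm, 665/615 nm emission ratio taken as kinase activity.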

JAK1 = biological target: T2, JAK1 (Homo sapiens, UniProt P23458); experiment: Lance Ultra Kinase Assay, recombinant JAK1; format: biochemical; details: 5 mM ATP
T2 construct: purchased Carna Biosciences
Outline: as §1

[1] = Pharmacokinetics in plasma and lung in mouse, intratracheal instillation; format: in vivo; details: male CD1 mice; for half-life / Kp at 5 min / Kp at 1 h: mouse; for half-life: lung, intratracheal instillation, read-out: Lung T1/2 (converted); for Kp at 5 min / Kp at 1 h: lung/plasma, other: intratracheal instillation; for Kp at 5 min: read-out: Conc. Ratio (Lung/Plasma) 5 min; for Kp at 1 h: read-out: Conc. Ratio (Lung/Plasma) 1 hr
Procedure: Lung PK of the compounds were tested via Intratracheal (IT) instillation administration in male CD1 Mice. Plasma and lung levels of test compounds and ratios thereof were determined in the following manner. Test compounds were dosed cassettely as the formulation of 0.4 mg/mL suspension of 0.5% HPMC, 0.1% Tween 80 in saline. The animal was anesthetized using 5% of isoflurane for 5 min, open its mouth and take out the tongue, the light was focused on the neck of the mouse and localize the trachea, and the syringe was inserted into the trachea while the trachea is in the open state, and the test compounds were inject into the trachea. At various time points (typically 5 min, 1, 4, 24 hours) post dosing, approximately 0.250 mL blood samples were removed via cardiac puncture and intact lungs were excised from the mice. Each blood sample was transferred into plastic micro centrifuge tubes containing K2EDTA. Blood samples were then centrifuged (Eppendorf centrifuge, 5804R) for 4 minutes at approximately 12,000 rpm at 4° C. to collect plasma. The mice will be fully exsanguinated prior to tissue collection. Lung samples will be collected at adopted time point and the whole lung were weighted and homogenized. Concentrations of test compounds in the plasma and lung samples were analyzed using a LC-MS/MS method. WinNonlin (Phoenix™) or other similar software will be used for pharmacokinetic calculations.

[2] = Metabolic stability in rat hepatocytes; format: in vitro ADME; details: 1 μM compound, male rat hepatocytes
Procedure: (§2) Rat hepatocytes in male gender and human liver microsome were obtained from commercial vendors (e.g., BioreclamationIVT) and stored at −150° C. prior to use.
For metabolic stability assay with rat heptatocytes, vials of cryopreserved hepatocytes or microsome were removed from storage, ensured that vials remain at cryogenic temperatures. 1 μM of each test compound (in Acetonitrile; 0.01% DMSO) was incubated with 250 μL of hepatocyte cells (1×10^6 cells/ml) in a 96 deep well plate. […] 40 μL of supernatant was diluted to 200 μL with pure water and analyzed using LC-MS/MS.
In vitro hepatocyte clearance was estimated based on determination of elimination half-life (T1/2) of compounds disappearance from their initial concentrations. Peak area ratios of each compound (test or control) to IS was calculated. Ln (% Control) versus Incubation Time (min) curve was plotted, and the slope of a linear fitting line was calculated. Drug elimination rate constant k (min−1), T1/2 (min), and in vitro intrinsic clearance CLint (μL/min/E6) was calculated according to the following equations: k=−slope T1/2=0.693/k CLint=k/Chep Where Chep (cells×μL^−1) is the cell concentration in the incubation system.

[3] = Metabolic stability in human liver microsome; format: in vitro ADME; details: human, pooled human liver microsomes, pH 7.4, 1 μM compound, 1 mg/mL microsomes, NADPH
Procedure: as §2
For metabolic stability assay with human liver microsome, 1 μM of each test compound was incubated with 1 mg/mL of microsomes (Pooled HLM with 20 mg/ml protein cone) at 37° C. in 250 μL of buffer (100 mM phosphate buffer, pH-7.4) containing 1 mM NADPH solution. […] was quenched with 5 volumes chilled acetonitrile at different time points 0, 0.5, 5, 10, 15, 20 and 30 min in a fresh 96 well plate. The quench plate was centrifuged at 4000 rpm for 15 min. 40 μL of supernatant was diluted to 200 μL with pure water and analyzed using LC-MS/MS. […]

JAK2 = biological target: T3, JAK2 (Homo sapiens, UniProt O60674); experiment: Lance Ultra Kinase Assay, recombinant JAK2; format: biochemical; details: 5 mM ATP
T3 construct: purchased Carna Biosciences
Outline: as §1

TYK2 = biological target: T4, TYK2 (Homo sapiens, UniProt P29597); experiment: Lance Ultra Kinase Assay, recombinant TYK2; format: biochemical; details: 5 mM ATP
T4 construct: purchased Carna Biosciences
Outline: as §1

phosphorylation of STAT6 = experiment: Cellular p-STAT6 assay, IL-13 stimulated THP-1 cells, flow cytometry; format: cell-based; details: Homo sapiens, THP-1, THP-1 cells, IL-13 10 ng/ml; read-out: pSTAT6 IC50
Outline: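 THP-1 cells (2×10^5/well, RPMI1640 + 10% FBS) preincubated 60 min at room temperature with compound (1 μM to 0.3 nM), then stimulated 30 min with IL-13 at 10 ng/ml. Fixed, methanol-permeabilized cells stained with PE anti-pSTAT6 and read by flow cytometry; IC50 from dose-response curves.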

T2 sequence (P23458 whole entry): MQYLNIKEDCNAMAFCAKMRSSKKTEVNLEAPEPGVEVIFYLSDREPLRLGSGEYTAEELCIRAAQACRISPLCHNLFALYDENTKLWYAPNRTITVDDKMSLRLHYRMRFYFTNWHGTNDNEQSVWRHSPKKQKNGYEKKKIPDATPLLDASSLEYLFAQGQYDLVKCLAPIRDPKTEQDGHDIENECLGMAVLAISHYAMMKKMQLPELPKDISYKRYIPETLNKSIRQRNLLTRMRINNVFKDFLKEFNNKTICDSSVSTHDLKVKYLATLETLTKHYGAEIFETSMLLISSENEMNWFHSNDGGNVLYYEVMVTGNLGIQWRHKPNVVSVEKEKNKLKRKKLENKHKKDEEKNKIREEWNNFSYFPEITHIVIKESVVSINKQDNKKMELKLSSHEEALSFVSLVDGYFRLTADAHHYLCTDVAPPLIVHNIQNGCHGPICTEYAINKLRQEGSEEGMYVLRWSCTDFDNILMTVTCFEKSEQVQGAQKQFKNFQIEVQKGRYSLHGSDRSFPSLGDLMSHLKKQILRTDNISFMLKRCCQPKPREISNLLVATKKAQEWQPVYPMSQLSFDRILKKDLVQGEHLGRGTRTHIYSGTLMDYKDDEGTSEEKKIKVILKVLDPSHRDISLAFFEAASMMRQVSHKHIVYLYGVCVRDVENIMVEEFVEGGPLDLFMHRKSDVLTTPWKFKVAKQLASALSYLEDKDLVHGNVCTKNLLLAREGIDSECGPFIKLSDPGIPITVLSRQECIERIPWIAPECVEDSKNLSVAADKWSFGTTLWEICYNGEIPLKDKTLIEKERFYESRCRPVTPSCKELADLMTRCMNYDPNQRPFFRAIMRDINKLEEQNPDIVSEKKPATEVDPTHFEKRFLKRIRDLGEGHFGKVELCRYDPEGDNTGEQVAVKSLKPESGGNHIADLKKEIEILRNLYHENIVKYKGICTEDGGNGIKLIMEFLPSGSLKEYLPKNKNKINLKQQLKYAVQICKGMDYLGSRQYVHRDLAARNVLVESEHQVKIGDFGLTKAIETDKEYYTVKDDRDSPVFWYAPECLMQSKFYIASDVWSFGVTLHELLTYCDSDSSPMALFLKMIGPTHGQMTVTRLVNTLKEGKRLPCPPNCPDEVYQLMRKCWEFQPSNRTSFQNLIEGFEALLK
T4 sequence (P29597 whole entry): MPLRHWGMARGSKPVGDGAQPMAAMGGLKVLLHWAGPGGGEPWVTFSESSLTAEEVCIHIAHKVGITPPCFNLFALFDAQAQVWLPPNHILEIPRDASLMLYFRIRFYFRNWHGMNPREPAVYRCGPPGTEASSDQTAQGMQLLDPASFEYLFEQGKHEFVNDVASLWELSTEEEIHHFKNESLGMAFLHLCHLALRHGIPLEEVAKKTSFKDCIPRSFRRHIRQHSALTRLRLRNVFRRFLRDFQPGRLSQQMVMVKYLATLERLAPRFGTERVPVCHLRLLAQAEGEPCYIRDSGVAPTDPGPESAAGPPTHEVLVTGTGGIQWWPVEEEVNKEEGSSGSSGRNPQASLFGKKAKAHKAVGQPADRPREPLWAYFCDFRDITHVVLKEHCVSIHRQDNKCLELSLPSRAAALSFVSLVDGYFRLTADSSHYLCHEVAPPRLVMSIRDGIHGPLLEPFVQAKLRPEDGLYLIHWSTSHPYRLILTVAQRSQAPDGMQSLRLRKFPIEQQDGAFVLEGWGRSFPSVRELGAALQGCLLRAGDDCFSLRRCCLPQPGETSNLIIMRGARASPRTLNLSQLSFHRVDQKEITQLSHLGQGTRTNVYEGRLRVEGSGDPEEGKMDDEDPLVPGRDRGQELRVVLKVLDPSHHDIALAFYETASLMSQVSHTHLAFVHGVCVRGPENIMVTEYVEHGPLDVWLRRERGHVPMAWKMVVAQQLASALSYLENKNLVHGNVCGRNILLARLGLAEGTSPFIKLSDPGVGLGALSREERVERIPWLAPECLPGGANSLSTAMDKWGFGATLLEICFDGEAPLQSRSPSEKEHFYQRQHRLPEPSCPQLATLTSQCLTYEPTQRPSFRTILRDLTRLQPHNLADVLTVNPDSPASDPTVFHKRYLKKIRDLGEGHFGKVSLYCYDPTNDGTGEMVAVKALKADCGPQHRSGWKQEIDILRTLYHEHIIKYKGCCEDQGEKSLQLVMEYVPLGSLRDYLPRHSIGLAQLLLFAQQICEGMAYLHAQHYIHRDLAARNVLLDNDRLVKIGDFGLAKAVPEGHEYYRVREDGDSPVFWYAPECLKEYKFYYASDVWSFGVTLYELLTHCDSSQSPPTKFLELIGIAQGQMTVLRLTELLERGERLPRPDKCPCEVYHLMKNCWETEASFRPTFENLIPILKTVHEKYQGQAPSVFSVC
T3 sequence (O60674 whole entry): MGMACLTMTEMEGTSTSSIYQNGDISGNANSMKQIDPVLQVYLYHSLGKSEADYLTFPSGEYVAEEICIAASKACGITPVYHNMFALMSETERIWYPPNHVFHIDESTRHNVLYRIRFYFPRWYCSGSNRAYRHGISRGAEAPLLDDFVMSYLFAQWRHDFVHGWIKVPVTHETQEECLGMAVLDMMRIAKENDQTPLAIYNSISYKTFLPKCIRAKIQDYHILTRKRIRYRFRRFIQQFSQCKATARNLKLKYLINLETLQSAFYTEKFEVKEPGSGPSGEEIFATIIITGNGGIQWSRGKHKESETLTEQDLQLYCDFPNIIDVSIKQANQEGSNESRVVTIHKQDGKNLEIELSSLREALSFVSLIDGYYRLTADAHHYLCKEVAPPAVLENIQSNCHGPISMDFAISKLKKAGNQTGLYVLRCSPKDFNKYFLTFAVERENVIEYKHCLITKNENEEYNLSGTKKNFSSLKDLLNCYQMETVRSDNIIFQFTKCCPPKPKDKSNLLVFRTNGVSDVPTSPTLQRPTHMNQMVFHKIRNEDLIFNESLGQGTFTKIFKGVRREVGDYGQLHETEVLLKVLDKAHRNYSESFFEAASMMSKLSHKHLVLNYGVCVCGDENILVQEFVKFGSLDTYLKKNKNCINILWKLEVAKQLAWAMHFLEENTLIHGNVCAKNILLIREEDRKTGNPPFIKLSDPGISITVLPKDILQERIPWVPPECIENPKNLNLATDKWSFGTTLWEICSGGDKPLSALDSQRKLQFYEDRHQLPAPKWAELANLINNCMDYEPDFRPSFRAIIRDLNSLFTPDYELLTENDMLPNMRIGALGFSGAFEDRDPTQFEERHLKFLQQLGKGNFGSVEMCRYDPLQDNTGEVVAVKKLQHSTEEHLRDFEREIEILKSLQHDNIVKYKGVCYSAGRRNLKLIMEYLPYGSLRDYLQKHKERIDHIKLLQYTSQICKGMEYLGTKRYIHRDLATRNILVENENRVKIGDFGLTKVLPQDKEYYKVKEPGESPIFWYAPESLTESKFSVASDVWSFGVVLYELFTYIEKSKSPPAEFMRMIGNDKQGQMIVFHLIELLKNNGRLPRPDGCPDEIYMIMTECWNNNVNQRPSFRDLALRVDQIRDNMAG

| Compound | IC50 (JAK3) | IC50 (JAK1) | % Dose in Lung 5 min [1] | % Dose in Lung 1 hr [1] | half-life [1] | Kp at 5 min [1] | Kp at 1 h [1] | Rat Hepatocyte CLint [2] | microsomal CLint at 1 μM [3] | IC50 (JAK2) | IC50 (TYK2) | IC50 (phosphorylation of STAT6) |
| --- | --- | --- | --- | --- | --- | --- | --- | --- | --- | --- | --- | --- |
| COC[C@H](C(=O)Nc1cccc2c(-c3nc(Nc4ccc(NC(=O)CO)nc4)ncc3F)c[nH]c12)N1CCN(C)CC1 [Example 8, (R)-N-(3-(5-fluoro-2-((6-(2-hydroxyacetamido)pyridin-3-yl)amino)pyrimidin-4-yl)-1H-indol-7-yl)-3-methoxy-2-(4-methylpiperazin-1-yl)propanamide] | > 10 µM | 0.00016 µM | 62.7% | 13.4% | 3.5 h | 296 | 1590 | 38.4 μL/min/10^6 cells | 7.2 µL/min/mg | 0.183 µM | 0.85 µM | 0.0062 µM |
| CCC(=O)Nc1ccc(Nc2ncc(F)c(-c3c[nH]c4c(NC(=O)[C@@H](COC)N5CCN(C)CC5)cccc34)n2)cn1 [Example 5, (R)-N-(3-(5-fluoro-2-((6-propionamidopyridin-3-yl)amino)pyrimidin-4-yl)-1H-indol-7-yl)-3-methoxy-2-(4-methylpiperazin-1-yl)propanamide] | > 10 µM | 0.00019 µM | 101.6% | 54.0% | 6.1 h | 2100 | 2940 | 11.0 μL/min/10^6 cells | 73.9 µL/min/mg | 0.268 µM | 0.764 µM | 0.0051 µM |
| COC[C@H](C(=O)Nc1cccc2c(-c3nc(Nc4ccnc(CO)c4)ncc3F)c[nH]c12)N1CCN(C)CC1 [Example 2, (R)-N-(3-(5-fluoro-2-((2-(hydroxymethyl)pyridin-4-yl)amino)pyrimidin-4-yl)-1H-indol-7-yl)-3-methoxy-2-(4-methylpiperazin-1-yl)propanamide] | > 10 µM | 0.00025 µM | 18.1% | 13.4% | 29.9 h | 399 | 3260 | 9.5 μL/min/10^6 cells | 10.6 µL/min/mg | 0.202 µM | 1.09 µM | 0.0043 µM |
| COC[C@H](C(=O)Nc1cccc2c(-c3nc(Nc4ccnc(C(=O)OC)c4)ncc3F)c[nH]c12)N1CCN(C)CC1 [Example 4, Methyl-(R)-4-((5-fluoro-4-(7-(3-methoxy-2-(4-methylpiperazin-1-yl)propanamido)-1H-indol-3-yl)pyrimidin-2-yl)amino)picolinate] | > 10 µM | 0.00026 µM |  |  |  |  |  | >300 μL/min/10^6 cells | 14.4 µL/min/mg | 0.081 µM | 1.83 µM | 0.0051 µM |

The next lines start with the values.

| IC50 (JAK3) | IC50 (JAK1) | % Dose in Lung 5 min [1] | % Dose in Lung 1 hr [1] | half-life [1] | Kp at 5 min [1] | Kp at 1 h [1] | Rat Hepatocyte CLint [2] | microsomal CLint at 1 μM [3] | IC50 (JAK2) | IC50 (TYK2) | IC50 (phosphorylation of STAT6) | Compound |
| --- | --- | --- | --- | --- | --- | --- | --- | --- | --- | --- | --- | --- |
| > 10 µM | 0.00013 µM | 79.9% | 19.4% | 3.9 h | 965 | 1780 | 117.1 μL/min/10^6 cells | 10.9 µL/min/mg | 0.065 µM | 0.726 µM | 0.0118 µM | COC[C@H](C(=O)Nc1cccc2c(-c3nc(Nc4ccc5sc(CO)nc5c4)ncc3F)c[nH]c12)N1CCN(C)CC1 [Example 38, (R)-N-(3-(5-fluoro-2-((2-(hydroxymethyl)benzo[d]thiazol-5-yl)amino)pyrimidin-4-yl)-1H-indol-7-yl)-3-methoxy-2-(4-methylpiperazin-1-yl)propanainide] |
| > 10 µM | 0.00021 µM | 58.6% | 23.0% | 4.6 h | 824 | 1440 | 36.4 μL/min/10^6 cells | 50.4 µL/min/mg | 0.219 µM | 2.51 µM | 0.0121 µM | COC[C@H](C(=O)Nc1cccc2c(-c3nc(Nc4ccc(-c5cnco5)nc4)ncc3F)c[nH]c12)N1CCN(C)CC1 [Example 40, (R)-N-(3-(5-fluoro-2-((6-(oxazol-5-yl)pyridin-3-yl)amino)pyrimidin-4-yl)-1H-indol-7-yl)-3-methoxy-2-(4-methylpiperazin-1-yl)propanamide] |
